According to publication PMC7449217, “The FDA-Approved Drug Nelfinavir Inhibits Lytic Cell-Free but Not Cell-Associated Nonlytic Transmission of Human Adenovirus” (Antimicrobial Agents and Chemotherapy, 2020):
Structures can show the parent of a compound that is named as a salt. Where two headings read alike, the source gives them in different places.

Columns and labels:
HIV aspartyl protease = tested on: HIV aspartyl protease; set-up: method as in PMID 9397180, PMID 9725550; conditions: cited from earlier work
HAdV-C2-dE3B-GFP = assay: microbe, parasite or virus in culture; format: cell-based, human adenovirus; conditions: for EC50: Human adenovirus sp.
Description: (§1) Per 96-well plate, 15,000 A549 cells, 10,000 HeLa cells, 30,000 HBECs, 30,000 HCE cells, or 30,000 CMT-93 cells were seeded in 100 μl of the respective supplemented medium and allowed to settle for 1 h at room temperature (RT) prior to cell culture incubation at 37°C with 5% CO2 and 95% humidity. The following day, the medium was replaced with 50 μl of the respective virus stock dilution giving rise to 5 to 50 plaques per 96-well plate. Fifty microliters of nelfinavir to obtain a 0.1 to 50 μM final concentration or the DMSO solvent control was also added, both in supplemented medium. For each experiment, a noninfected, treated control was performed. For uphill plaque assays, the medium volume was increased to 150 μl with identical virus and drug concentrations. For wash-in/washout experiments, the virus was incubated on cells in supplemented medium for 1 h at 37°C, cells were washed with PBS, and a 100-μl drug dilution in supplemented medium was added. All experiments were performed in four technical replicates or as indicated. Cells were incubated under standard cell culture conditions. At the indicated times postinfection, the cells were fixed, and the nuclei were stained for 1 h at RT by the addition of 33 μl 16% (wt/vol) paraformaldehyde (PFA) and 4 μg/ml Hoechst 33342 (Sigma-Aldrich, St. Louis, MO, USA) in PBS. Cells were washed three times with PBS and stored in PBS supplemented with 0.02% N3 for infections with viruses harboring a GFP transgene. For wild-type (wt) viruses, cells were quenched in PBS supplemented with 50 mM NH4Cl, permeabilized using 0.2% (vol/vol) Triton X-100 in PBS, and blocked with 0.5% (wt/vol) bovine serum albumin (BSA) in PBS. Cells were incubated with 381.7 ng/ml mouse anti-HAdV hexon protein antibody (Mab8052; Sigma-Aldrich, St. Louis, MO, USA) and subsequently stained using 2 μg/ml goat anti-mouse-Alexa Fluor 594 (catalog number A21203 or A32742; Thermo Fisher Scientific, Waltham, MA, USA). Plates were imaged on either an IXM-XL or an IXM-C automated high-throughput fluorescence microscope (Molecular Devices, San Jose, CA, USA) using a 4× objective in wide-field mode. Hoechst staining was recorded in the 4′,6-diamidino-2-phenylindole (DAPI) channel, the fluorescein isothiocyanate (FITC)/GFP channel was acquired for viral GFP, and the tetramethyl rhodamine isothiocyanate (TRITC)/Texas Red channel was acquired for hexon immunofluorescence staining.
(§2) The infection phenotype for each well was quantified using Plaque2.0 ([101]). The number of plaques was determined based on the infection signal (viral GFP or hexon immunofluorescence staining). Nuclei stained with Hoechst were segmented by using CellProfiler ([178]). Infected nuclei were classified based on the median infection signal per nucleus in CellProfiler. Data were plotted, and the EC50 (infected and treated cells), the TC50 (noninfected, treated cells), as well as the corresponding standard errors (SE) were determined using curve fitting in GraphPad (version 8.1.2; GraphPad Software, Inc.) using three-parameter inhibitor concentration-versus-response nonlinear regression. The mean TI50 was calculated as the […] ratio of the means. The TI50 SE was calculated by error propagation.

HBEC = format: cell-based; conditions: human
Description: as §1, §2

HeLa cells = format: cell-based; conditions: human
Description: as §1, §2

HCE cells = format: cell-based; conditions: human
Description: as §1, §2

A549 cells = conditions: cited from earlier work
dl712 (HAdV-C5/2-dADP) = assay: fluorescence-based plaque-forming assay, A549 cells; format: cell-based, human adenovirus
Description: as §1, §2

HAdV-B34 = assay: as above; format: cell-based, human adenovirus
Description: as §1, §2

uninfected A549 cells = assay: cellular impedance measurement (xCELLigence), nelfinavir toxicity; format: cell-based, human
Description: Impedance-based assays were performed using the xCELLigence system (Roche Applied Science and ACEA Biosciences) as described previously ([152], [153]), according to the manufacturer’s instructions ([177]), in a cell culture environment (37°C, 5% CO2, and 95% humidity) in duplicates. The 16-well E plates have a gold-plated sensor array embedded in their glass bottom by which the electrical impedance across each well bottom is measured. The impedance per well, termed the cell index (CI), is recorded as a dimensionless quantity. The background CI was assessed following the addition of 50 μl supplemented medium to each well and equilibration in the incubation environment. After 30 min of equilibration, 9,000 A549 cells in 50 μl supplemented medium were added per well, and measurement was started.
For the quantification of nelfinavir toxicity, 50 μl of the supernatant was removed 18 h later and replaced with 2-fold-concentrated nelfinavir or DMSO solvent as the control dilution in supplemented medium (final nelfinavir concentration of 0.4 to 100 μM in 100 μl/well). The control was supplemented medium. Impedance was recorded every 15 min over 5 days. The TC50 indicates the concentration of nelfinavir that caused a 50% impedance reduction compared to the solvent-treated cells. The TC50 was calculated by nonlinear regression of the solvent-normalized CI over the concentration of nelfinavir.

Q: Which results are given for `Cc1c(O)cccc1C(=O)N[C@@H](CSc1ccccc1)[C@H](O)CN1C[C@H]2CCCC[C@H]2C[C@H]1C(=O)NC(C)(C)C` [Nelfinavir, Nelfinavir mesylate]?
A: inhibitory concentration (HIV aspartyl protease): low-nanomolar range; TI50 (TC50/IC50) (HAdV-C2-dE3B-GFP; HAdV-C2-dE3B-GFP in A549, 3 dpi, GFP): 66.80; TI50 (TC50/IC50) (HAdV-C2-dE3B-GFP; HAdV-C2-dE3B-GFP in A549, 3 dpi, GFP, listed as nelfinavir): 66.8; TI50 (TC50/IC50) (HAdV-C2-dE3B-GFP; HAdV-C2-dE3B-GFP in A549, 4 dpi, GFP): 29.43; TI50 (TC50/IC50) (HAdV-C2-dE3B-GFP; HAdV-C2-dE3B-GFP in A549, 4 dpi, Hexon): 29.87; EC50 (HAdV-C2-dE3B-GFP; A549, HAdV-C2-dE3B-GFP in A549, fixation 3 dpi (72 hpi), read-out GFP, plaque numbers): 0.22 µM; EC50 (HAdV-C2-dE3B-GFP; A549, HAdV-C2-dE3B-GFP in A549, fixation 4 dpi, read-out GFP, plaque numbers): 0.44 µM; EC50 (HAdV-C2-dE3B-GFP; A549, HAdV-C2-dE3B-GFP in A549, fixation 4 dpi, read-out Hexon, plaque numbers): 0.43 µM; EC50 (HAdV-C2-dE3B-GFP; A549, read-out: EC50 of fluorescent-plaque formation, HAdV-C2-dE3B-GFP, A549 cells, 82 hpi, plaque numbers): 0.37 µM; median therapeutic index (TI50) (HAdV-C2-dE3B-GFP; ratio TC50 (nuclei) / EC50 (plaques), A549 cells, 82 hpi): 27.1; TC50 (HBEC; 6 days): 13.33 µM; TC50 (HBEC; 8 days): 12.74 µM; TC50 (HeLa cells; 4 days): 29.85 µM; TC50 (HeLa cells; 5 days): 41.69 µM; TC50 (HCE cells; 5 days): 29.73 µM; TC50 (HCE cells; 8 days): 19.59 µM; Toxic (A549 cells): no; EC50 (dl712 (HAdV-C5/2-dADP); Human adenovirus sp., A549): 6.87 µM; TI50 (TC50/IC50) (dl712 (HAdV-C5/2-dADP); dl712 (HAdV-C5/2-dADP) in A549, 5 dpi, Hexon): 2.18; TI50 (TC50/IC50) (HAdV-B34; HAdV-B34 in A549, 4 dpi, Hexon): 6.40; EC50 (HAdV-B34; Human adenovirus sp., HAdV-B34 in A549, fixation 4 dpi, read-out Hexon, plaque numbers): 3.18 µM; toxicity in cell index (CI) profiles (uninfected A549 cells; uninfected A549, up to 6.25 µM, more than 4 days of incubation): little signs of toxicity; median toxicity TC50 (cell impedance) (uninfected A549 cells; uninfected A549 cells, incubation up to 115 h, xCELLigence): 25.7 µM
